Reference: patent publication US12103939B2, “Solid pharmaceutical gold-based composition” (KING FAHD UNIVERSITY OF PETROLEUM AND MINERALS, priority 2019, dated 2024)
“And” between values parts separate entries of the source, which are not always exact repeats. Equal values may be shown once.

Columns and labels:
[1] = tested on: A549 lung cancer cell line; experiment: Cytotoxicity assay (MTT, 72 h); format: cell-based, human; conditions: A549, MTT after 72 h, mean (SD); read-out: Half-maximal inhibitory concentration (IC50)
Procedure: (§1) R-ME-180 and A2780cis cells were maintained in 1 μM cisplatin. Adipose-derived stromal cells were maintained in MSCGM BulletKit medium (Lonza). All cell lines were cultured at 37° C. in a 5% CO2, fully humidified atmosphere
(§2) Cell lines were seeded in 96-well flat-bottomed microplates in 100 μL culture medium at the following densities: DU145, PC3 and MCF-7 cells (2.5×10^3 cells/well); A2780, A2780cis, ME-180, R-ME-180 and A549 cells (4.0×10^3 cells/well); and MG-63 cells (2.0×10^3 cells/well). Cells were allowed to adhere for 24 h. Then the medium was replaced with fresh medium alone or with one of the gold(III) complexes at increasing concentrations from 0 to 100 μM. The reference drugs cisplatin (0-100 μM) and doxorubicin (0-1 μM) were included as positive controls for growth inhibition. After 72 h, cell viability was assayed using the MTT assay.
(§3) See Chou T. C.; Talalay P. Quantitative analysis of dose-effect relationships: the combined effects of multiple drugs or enzyme inhibitors. […] 22, 27-55, incorporated herein by reference in its entirety. IC50 values were reported as mean (SD). For drug-resistance cell lines, fold resistance (FR) was calculated as the ratio of the IC50 of the resistant cell line to the IC50 of the parental cell line.

[2] = tested on: DU145 prostate cancer cell line; experiment: Cytotoxicity assay (MTT, 72 h); format: cell-based, human; conditions: DU145, MTT after 72 h, mean (SD); read-out: Half-maximal inhibitory concentration (IC50)
Procedure: as §1, §2, §3

[3] = tested on: MCF-7 breast cancer cell line; experiment: Cytotoxicity assay (MTT, 72 h); format: cell-based, human; conditions: MCF-7, MTT after 72 h, mean (SD); read-out: Half-maximal inhibitory concentration (IC50)
Procedure: as §1, §2, §3

[4] = tested on: MG-63 osteosarcoma cell line; experiment: Cytotoxicity assay (MTT, 72 h); format: cell-based, human; conditions: MG63, MTT after 72 h, mean (SD); read-out: Half-maximal inhibitory concentration (IC50)
Procedure: as §1, §2, §3

[5] = tested on: PC3 prostate cancer cell line; experiment: Cytotoxicity assay (MTT, 72 h); format: cell-based, human
Procedure: as §1, §2, §3

[6] = tested on: cisplatin- and doxorubicin-resistant A2780cis clone; experiment: Cytotoxicity assay (MTT, 72 h); format: cell-based, human
Procedure: as §1, §2, §3

[7] = tested on: cisplatin-resistant R-ME-180 clone; experiment: Cytotoxicity assay (MTT, 72 h); format: cell-based, human
Procedure: as §1, §2, §3

[8] = tested on: normal human adipose-derived stromal cells (ADSCs); experiment: Growth inhibition in adipose-derived stromal cells (MTT, 72 h); format: cell-based; conditions: MTT after 72 h
Procedure: Human adipose-derived stromal cells (ADSCs) were from Lonza (Verviers, Belgium). ADSCs were maintained in MSGM bullet kit (Lonza) and experiments were performed in DMEM (Cambrex Bio Science, Milan, Italy) supplemented with 10% FBS. To evaluate effects of C6, ADSCs were seeded in 96-well flat-bottomed microplates (5.0×10^3 cells in 100 μL per well) and incubated for 24 h (to allow cell adhesion) before drug testing. The medium was removed and replaced with fresh medium containing C6 at increasing concentrations (from 0.1 to 1 μM). Cells were incubated at 37° ° C. for 72 h. Each treatment was performed in triplicate. Cell growth was measured using the MTT assay.

PC3 cells [9] = experiment: Cellular uptake of gold(III) complexes (ICP-MS); format: cell-based, human; conditions: 3 μM, 2 h, ICP mass spectrometry
Procedure: After treatment, monolayers were washed with ice-cold PBS four times, and the cells were detached with trypsin-EDTA and washed three times with ice-cold PBS by centrifugation. The cell pellet was solubilized in 700 μL of HNO3—HCl solution (1:3 molar ratio) for 2 h at 100° C., and then diluted with 4 mL water. Samples were analyzed for gold on an Agilent 7500 inductively coupled plasma mass spectrometer (ICP-MS). Results were expressed as ng gold/10^6 cells. The experiment was performed a total of two times and the results were expressed as mean and SD.

PC3 cells [10] = experiment: Apoptosis assay (Annexin V-FITC / propidium iodide, flow cytometry); format: cell-based, human; conditions: PC3, C6 at IC50 and IC75, 24 h
Procedure: (§4) For apoptosis assays, PC3 cells were treated with C6 for 24 h and then apoptosis was assayed by staining for 15 min with FITC Annexin V reagent (BD Pharmingen) and propidium iodide (PI). Apoptotic cells were detected by flow cytometry (BD FACSCanto II flow cytometer) and analyzed using BD FACSDiva v8.0.1 software (BD Biosciences). Caspase 3,7 activation was evaluated using fluorochrome-labeled inhibitors of caspases (FLICA) of the CaspaTag Caspase 3,7 In Situ Assay Kit, Fluorescein (Millipore) and evaluated by flow cytometry; data were expressed as mean fluorescence intensity.

caspase 3,7 = experiment: Caspase 3,7 activation (FLICA, flow cytometry); format: cell-based, human; conditions: PC3, 24 h
Procedure: as §4

PC3 cells [11] = experiment: Cell cycle distribution (PI staining); format: cell-based, human; conditions: vs untreated cells
Procedure: To assay the distribution of cells in the various phases of the cell cycle, PC3 cells were treated with C6 for 48 h, then harvested, fixed in cold 70% ethanol for 15 min and stained with PI solution (50 μg/mL PI, 0.1% NP-40, 100 μg/mL PureLink RNase A, 0.1% sodium citrate). After 1 h, cells were analyzed by flow cytometry. The distribution of cells in different cell cycle phases was quantified using ModFit LT 4.0 software.

PC3 cells [12] = experiment: Reactive oxygen species production (H2DCFDA); format: cell-based, human; conditions: PC3, C6 at IC50 and IC75, 24 h
Procedure: The production of reactive oxygen species (ROS) was evaluated using 2′,7′-dichlorodihydrofluorescein diacetate (H2DCFDA) (H2-DCF, DCF) (Invitrogen). Cells were pretreated with the antioxidant N-acetyl-L-cysteine (NAC; 5 mM) (Sigma) for 30 min before C6 was added. After 24 h of C6 treatment, cells were harvested and viable cells were counted by trypan blue dye exclusion. Then cells were washed, stained with 1 μM H2DCFDA for 30 min at 37° C., and finally ROS production was analyzed by flow cytometry.

20S proteasome = 20S proteasome activity in lysates of treated PC3 cells; format: cell-based, human; conditions: PC3, 12 h
Procedure: Proteasome activity (EC 3.4.25.1) was evaluated on the same cell lysates as used to assay TrxR. Proteasome activity was assayed in cytosolic extracts using the 20S Proteasome Activity Assay kit APT280 (Merck Millipore) and a computer-interfaced GeniusPlus microplate reader (Tecan).

[13] = tested on: thioredoxin reductase (TrxR); experiment: Thioredoxin reductase activity in lysates of treated PC3 cells; conditions: PC3, C6 at IC25, IC50, IC75, 12 h
Procedure: All experimental conditions were tested in triplicate and experiments were done three times to calculate means and SD.
Thioredoxin reductase (TrxR) (EC 1.8.1.9) was assayed using the Thioredoxin Reductase Assay Kit (Sigma-Aldrich). […] Enzyme activity was determined reading absorbance at 412 nm using a spectrophotometer (Biomate 3 Thermo Spectronic). The enzymatic activity was normalized to the protein concentration, determined using the Bio-Rad protein assay (Protein Assay Dye Reagent Concentrate, Bio-Rad Laboratories), and expressed as percentage of control (no C6).

C[N+](C)=C1[S][Au-]2([S]1)[n+]1ccc[n+]3c1-c1[n+]2ccc[n+]1[Au-]31[S]C(=[N+](C)C)[S]1.[Cl-].[Cl-].[Cl-].[Cl-] [C6, [Au2(BPM)(DMDTC)2]Cl4]
IC50 [1]: 800 nM | IC50 [2]: 700 nM | IC50 [3]: 500 nM | IC50 [4]: 800 nM | IC25 ([5]; PC3): 310 nM | IC75 ([5]; PC3): 1850 nM | IC50 ([5]; PC3, MTT after 72 h, mean (SD), read-out: Half-maximal inhibitory concentration (IC50)): 600 nM and 620 nM | IC50 ([6]; A2780cis, MTT after 72 h, mean (SD)): 300 nM | FR (A2780cis/A2780), fold resistance ([6]; IC50 A2780cis / IC50 A2780): 1.2 | FR (R-ME-180/ME-180), fold resistance ([7]; IC50 R-ME-180 / IC50 ME-180): 0.9 | IC50 ([7]; R-ME-180, MTT after 72 h, mean (SD)): 4900 nM | IC50 [8]: 1400 nM | amount of internalized gold (cellular uptake) (PC3 cells [9]): internalization even greater than that of C7 | percentage of annexin-V-positive and annexin-V/PI-positive cells (apoptosis) (PC3 cells [10]): dose-dependent increase in the percentage of annexin-V-positive cells | caspase 3,7 activation (FLICA) (caspase 3,7): activated caspase 3,7 | distribution of cells in the cell cycle (PC3 cells [11]): increasing the percentage of cells in S phase and decreasing that in G1 | ROS production (PC3 cells [12]): induced ROS production in a dose-dependent manner | 20S proteasome activity (20S proteasome): dose-dependent inhibitory effect | TrxR enzymatic activity [13]: dose-dependent decrease of its enzymatic activity
